Values after ≈ are worked out from the molar mass of the structure shown.
What was measured:
Type in all cases: functional
[1] = test system: Escherichia coli; test: Antimicrobial activity against Escherichia coli MTCC 442 by broth microdilution method
[2] = test system: Pseudomonas aeruginosa; test: Antimicrobial activity against Pseudomonas aeruginosa MTCC 2488 by broth microdilution method
[3] = test system: Aspergillus niger; test: Antimicrobial activity against Aspergillus niger MTCC 282
[4] = test system: Candida albicans; test: Antimicrobial activity against Candida albicans MTCC 227
[5] = test system: Streptococcus pyogenes; test: Antimicrobial activity against Streptococcus pyogenes MTCC 443 by broth microdilution method
[6] = test system: Staphylococcus aureus; test: Antimicrobial activity against Staphylococcus aureus MTCC 96 by broth microdilution method
[7] = test system: Aspergillus clavatus; test: Antimicrobial activity against Aspergillus clavatus MTCC 1323
[8] = test system: Mycobacterium tuberculosis; test: Antimicrobial activity against Mycobacterium tuberculosis H37Rv; details: for MIC: Mycobacterium tuberculosis, H37Rv

| SMILES | MIC [1] [µg/mL] | MIC [2] [µg/mL] | MIC [3] [µg/mL] | MIC [4] [µg/mL] | MIC [5] [µg/mL] | MIC [6] [µg/mL] | MIC [7] [µg/mL] | inhibition (INH) [8] [%] | MIC [8] [µg/mL] |
| --- | --- | --- | --- | --- | --- | --- | --- | --- | --- |
| COc1ccc(-c2cc(N3CCCC3)n(-c3cccc(Cl)c3)c(=O)c2/N=N/c2ccc([N+](=O)[O-])cc2)cc1 | 250 (≈ 472 µM) | 250 (≈ 472 µM) | > 1000 | 250 (≈ 472 µM) | 250 (≈ 472 µM) | 250 (≈ 472 µM) | > 1000 | – | – |
| COc1ccc(-c2cc(N3CCCC3)n(-c3cccc(Cl)c3)c(=O)c2Cn2cncn2)cc1 | 100 (≈ 216 µM) | 100 (≈ 216 µM) | 250 (≈ 541 µM) | 200 (≈ 433 µM) | 200 (≈ 433 µM) | 250 (≈ 541 µM) | 500 (≈ 1080 µM) | 98 | 500 (≈ 1080 µM) |
| COc1ccc(-c2cc(N3CCCC3)n(-c3cccc(Cl)c3)c(=O)c2/N=N/c2ccccc2C)cc1 | 200 (≈ 401 µM) | 500 (≈ 1000 µM) | 1000 (≈ 2000 µM) | 1000 (≈ 2000 µM) | 500 (≈ 1000 µM) | 500 (≈ 1000 µM) | 1000 (≈ 2000 µM) | – | – |
| COc1ccc(-c2cc(N3CCCC3)n(-c3cccc(Cl)c3)c(=O)c2/N=N/c2ccccc2)cc1 | 62.5 (≈ 129 µM) | 100 (≈ 206 µM) | 500 (≈ 1030 µM) | 200 (≈ 412 µM) | 250 (≈ 515 µM) | 200 (≈ 412 µM) | 500 (≈ 1030 µM) | – | – |
| COc1ccc(-c2cc(=O)n(-c3cccc(Cl)c3)c(N3CCCC3)c2/N=N/c2cccc(Cl)c2)cc1 | 500 (≈ 963 µM) | 500 (≈ 963 µM) | 500 (≈ 963 µM) | 250 (≈ 481 µM) | 100 (≈ 193 µM) | 100 (≈ 193 µM) | 500 (≈ 963 µM) | – | – |
| COc1ccc(-c2cc(N3CCCC3)n(-c3cccc(Cl)c3)c(=O)c2/N=N/c2ccc(C)cc2)cc1 | 200 (≈ 401 µM) | 200 (≈ 401 µM) | 250 (≈ 501 µM) | 250 (≈ 501 µM) | 200 (≈ 401 µM) | 200 (≈ 401 µM) | 250 (≈ 501 µM) | – | – |
| COc1ccc(-c2cc(N3CCCC3)n(-c3cccc(Cl)c3)c(=O)c2)cc1 | 250 (≈ 656 µM) | 500 (≈ 1310 µM) | 1000 (≈ 2630 µM) | 1000 (≈ 2630 µM) | 500 (≈ 1310 µM) | 500 (≈ 1310 µM) | 1000 (≈ 2630 µM) | 99 | 500 (≈ 1310 µM) |
| COc1ccc(-c2cc(N3CCCC3)n(-c3cccc(Cl)c3)c(=O)c2/N=N/c2ccc([N+](=O)[O-])cc2Cl)cc1 | 250 (≈ 443 µM) | 250 (≈ 443 µM) | 500 (≈ 886 µM) | 250 (≈ 443 µM) | 200 (≈ 354 µM) | 200 (≈ 354 µM) | 500 (≈ 886 µM) | – | – |
| CC1(C)S[C@@H]2[C@H](NC(=O)[C@H](N)c3ccccc3)C(=O)N2[C@H]1C(=O)O [AMPICILLIN] | 100 (≈ 286 µM) | 100 (≈ 286 µM) | – | – | 100 (≈ 286 µM) | 250 (≈ 715 µM) | – | – | – |
| COc1ccc(-c2cc(N3CCCC3)n(-c3cccc(Cl)c3)c(=O)c2CN2CCCC2)cc1 | 250 (≈ 539 µM) | 500 (≈ 1080 µM) | 500 (≈ 1080 µM) | 500 (≈ 1080 µM) | 500 (≈ 1080 µM) | 500 (≈ 1080 µM) | 1000 (≈ 2160 µM) | – | – |
| COc1ccc(-c2cc(=O)n(-c3cccc(Cl)c3)c(N3CCCC3)c2/N=N/c2ccc([N+](=O)[O-])cc2)cc1 | 250 (≈ 472 µM) | 250 (≈ 472 µM) | > 1000 | 500 (≈ 943 µM) | 250 (≈ 472 µM) | 500 (≈ 943 µM) | 500 (≈ 943 µM) | – | – |
| COc1ccc(-c2cc(N3CCCC3)n(-c3cccc(Cl)c3)c(=O)c2/N=N/c2ccc(Cl)c(Cl)c2)cc1 | 62.5 (≈ 113 µM) | 200 (≈ 361 µM) | 500 (≈ 903 µM) | 100 (≈ 181 µM) | 500 (≈ 903 µM) | 200 (≈ 361 µM) | 1000 (≈ 1810 µM) | 99 | 250 (≈ 451 µM) |
| COc1ccc(-c2cc(=O)n(-c3cccc(Cl)c3)c(N3CCCC3)c2/N=N/c2ccc(Cl)cc2)cc1 | 100 (≈ 193 µM) | 500 (≈ 963 µM) | 500 (≈ 963 µM) | 100 (≈ 193 µM) | 500 (≈ 963 µM) | 500 (≈ 963 µM) | 500 (≈ 963 µM) | – | – |
| COc1ccc(-c2cc(N3CCCC3)n(-c3cccc(Cl)c3)c(=O)c2/N=N/c2cc(Cl)ccc2Cl)cc1 | 250 (≈ 451 µM) | 500 (≈ 903 µM) | > 1000 | 1000 (≈ 1810 µM) | 500 (≈ 903 µM) | 500 (≈ 903 µM) | > 1000 | – | – |
| COc1ccc(-c2cc(N3CCCC3)n(-c3cccc(Cl)c3)c(=O)c2/N=N/c2cccc(Cl)c2)cc1 | 500 (≈ 963 µM) | 500 (≈ 963 µM) | 500 (≈ 963 µM) | 250 (≈ 481 µM) | 100 (≈ 193 µM) | 100 (≈ 193 µM) | 500 (≈ 963 µM) | – | – |
| COc1ccc(-c2cc(N3CCCC3)n(-c3cccc(Cl)c3)c(=O)c2/N=N/c2cccc(C)c2)cc1 | 250 (≈ 501 µM) | 250 (≈ 501 µM) | 500 (≈ 1000 µM) | 500 (≈ 1000 µM) | 200 (≈ 401 µM) | 150 (≈ 301 µM) | 500 (≈ 1000 µM) | – | – |
| COc1ccc(-c2cc(=O)n(-c3cccc(Cl)c3)c(N3CCCC3)c2/N=N/c2ccccc2C)cc1 | 200 (≈ 401 µM) | 500 (≈ 1000 µM) | 1000 (≈ 2000 µM) | 250 (≈ 501 µM) | 500 (≈ 1000 µM) | 500 (≈ 1000 µM) | 1000 (≈ 2000 µM) | – | – |
| COc1ccc(-c2cc(=O)n(-c3cccc(Cl)c3)c(N3CCCC3)c2/N=N/c2ccc(Cl)c(Cl)c2)cc1 | 62.5 (≈ 113 µM) | 200 (≈ 361 µM) | 500 (≈ 903 µM) | 100 (≈ 181 µM) | 500 (≈ 903 µM) | 200 (≈ 361 µM) | 1000 (≈ 1810 µM) | – | – |
